{"source": "a compilation of properties of binary mixtures (doi:10.1016/j.jtice.2014.04.012)", "assay": "xn = mol fraction of the nth substance listed", "conditions": "100 kPa", "data": [{"smiles": "CN(C)C=O", "note": "+ CCCC[n+]1ccn(C)c1.F[B-](F)(F)F", "values": [{"measurement": "viscosity", "setting": "303.15 K, x2 = 0", "value": 0.77, "unit": "mPa·s"}, {"measurement": "viscosity", "setting": "313.15 K, x2 = 0", "value": 0.688, "unit": "mPa·s"}, {"measurement": "viscosity", "setting": "323.15 K, x2 = 0", "value": 0.619, "unit": "mPa·s"}]}, {"smiles": "CCCC[n+]1ccn(C)c1.F[B-](F)(F)F", "note": "+ CN(C)C=O", "values": [{"measurement": "viscosity", "setting": "303.15 K, x1 = 0.2015", "value": 2.598, "unit": "mPa·s"}, {"measurement": "viscosity", "setting": "303.15 K, x1 = 0.3022", "value": 4.414, "unit": "mPa·s"}, {"measurement": "viscosity", "setting": "303.15 K, x1 = 0.4024", "value": 7.178, "unit": "mPa·s"}, {"measurement": "viscosity", "setting": "303.15 K, x1 = 0.502", "value": 11.55, "unit": "mPa·s"}, {"measurement": "viscosity", "setting": "303.15 K, x1 = 0.6024", "value": 17.99, "unit": "mPa·s"}, {"measurement": "viscosity", "setting": "303.15 K, x1 = 0.7019", "value": 26.92, "unit": "mPa·s"}, {"measurement": "viscosity", "setting": "303.15 K, x1 = 0.8015", "value": 39.91, "unit": "mPa·s"}, {"measurement": "viscosity", "setting": "303.15 K, x1 = 0.9002", "value": 58.87, "unit": "mPa·s"}, {"measurement": "viscosity", "setting": "303.15 K, x1 = 1", "value": 85.4, "unit": "mPa·s"}, {"measurement": "viscosity", "setting": "313.15 K, x1 = 0.1008", "value": 1.298, "unit": "mPa·s"}, {"measurement": "viscosity", "setting": "313.15 K, x1 = 0.2015", "value": 2.198, "unit": "mPa·s"}, {"measurement": "viscosity", "setting": "313.15 K, x1 = 0.3022", "value": 3.585, "unit": "mPa·s"}, {"measurement": "viscosity", "setting": "313.15 K, x1 = 0.4024", "value": 5.632, "unit": "mPa·s"}, {"measurement": "viscosity", "setting": "313.15 K, x1 = 0.502", "value": 8.76, "unit": "mPa·s"}, {"measurement": "viscosity", "setting": "313.15 K, x1 = 0.6024", "value": 13.13, "unit": "mPa·s"}, {"measurement": "viscosity", "setting": "313.15 K, x1 = 0.7019", "value": 19.05, "unit": "mPa·s"}, {"measurement": "viscosity", "setting": "313.15 K, x1 = 0.9002", "value": 38.08, "unit": "mPa·s"}, {"measurement": "viscosity", "setting": "323.15 K, x1 = 0.1008", "value": 1.142, "unit": "mPa·s"}, {"measurement": "viscosity", "setting": "323.15 K, x1 = 0.2015", "value": 1.892, "unit": "mPa·s"}, {"measurement": "viscosity", "setting": "323.15 K, x1 = 0.4024", "value": 4.587, "unit": "mPa·s"}, {"measurement": "viscosity", "setting": "323.15 K, x1 = 0.502", "value": 6.849, "unit": "mPa·s"}, {"measurement": "viscosity", "setting": "323.15 K, x1 = 0.6024", "value": 10, "unit": "mPa·s"}, {"measurement": "viscosity", "setting": "323.15 K, x1 = 0.8015", "value": 19.37, "unit": "mPa·s"}, {"measurement": "viscosity", "setting": "323.15 K, x1 = 0.9002", "value": 26.77, "unit": "mPa·s"}, {"measurement": "viscosity", "setting": "323.15 K, x1 = 1", "value": 36.27, "unit": "mPa·s"}, {"measurement": "viscosity", "setting": "333.15 K, x1 = 0.1008", "value": 1.012, "unit": "mPa·s"}, {"measurement": "viscosity", "setting": "333.15 K, x1 = 0.2015", "value": 1.631, "unit": "mPa·s"}, {"measurement": "viscosity", "setting": "333.15 K, x1 = 0.3022", "value": 2.53, "unit": "mPa·s"}, {"measurement": "viscosity", "setting": "333.15 K, x1 = 0.4024", "value": 3.873, "unit": "mPa·s"}, {"measurement": "viscosity", "setting": "333.15 K, x1 = 0.502", "value": 5.565, "unit": "mPa·s"}, {"measurement": "viscosity", "setting": "333.15 K, x1 = 0.6024", "value": 7.857, "unit": "mPa·s"}, {"measurement": "viscosity", "setting": "333.15 K, x1 = 0.8015", "value": 14.43, "unit": "mPa·s"}, {"measurement": "viscosity", "setting": "333.15 K, x1 = 0.9002", "value": 19.11, "unit": "mPa·s"}, {"measurement": "viscosity", "setting": "333.15 K, x1 = 1", "value": 25.46, "unit": "mPa·s"}]}]}
